Source: ChEMBL document CHEMBL3608294, “Epoxylathyrol Derivatives: Modulation of ABCB1-Mediated Multidrug Resistance in Human Colon Adenocarcinoma and Mouse T-Lymphoma Cells” (J Nat Prod, 2015)

What was measured:
[1] = target: T1, ATP-dependent translocase ABCB1 (Homo sapiens, UniProt P08183); assay: Inhibition of human ABCB1 expressed in mouse L5178Y cells assessed as fluorescence activity ratio at 20 uM incubated for 10 mins by flow cytometry based rhodamine-123 accumulation assay (reference value: 0.78); assay type: cell-based
T1 sequence (P08183 whole entry): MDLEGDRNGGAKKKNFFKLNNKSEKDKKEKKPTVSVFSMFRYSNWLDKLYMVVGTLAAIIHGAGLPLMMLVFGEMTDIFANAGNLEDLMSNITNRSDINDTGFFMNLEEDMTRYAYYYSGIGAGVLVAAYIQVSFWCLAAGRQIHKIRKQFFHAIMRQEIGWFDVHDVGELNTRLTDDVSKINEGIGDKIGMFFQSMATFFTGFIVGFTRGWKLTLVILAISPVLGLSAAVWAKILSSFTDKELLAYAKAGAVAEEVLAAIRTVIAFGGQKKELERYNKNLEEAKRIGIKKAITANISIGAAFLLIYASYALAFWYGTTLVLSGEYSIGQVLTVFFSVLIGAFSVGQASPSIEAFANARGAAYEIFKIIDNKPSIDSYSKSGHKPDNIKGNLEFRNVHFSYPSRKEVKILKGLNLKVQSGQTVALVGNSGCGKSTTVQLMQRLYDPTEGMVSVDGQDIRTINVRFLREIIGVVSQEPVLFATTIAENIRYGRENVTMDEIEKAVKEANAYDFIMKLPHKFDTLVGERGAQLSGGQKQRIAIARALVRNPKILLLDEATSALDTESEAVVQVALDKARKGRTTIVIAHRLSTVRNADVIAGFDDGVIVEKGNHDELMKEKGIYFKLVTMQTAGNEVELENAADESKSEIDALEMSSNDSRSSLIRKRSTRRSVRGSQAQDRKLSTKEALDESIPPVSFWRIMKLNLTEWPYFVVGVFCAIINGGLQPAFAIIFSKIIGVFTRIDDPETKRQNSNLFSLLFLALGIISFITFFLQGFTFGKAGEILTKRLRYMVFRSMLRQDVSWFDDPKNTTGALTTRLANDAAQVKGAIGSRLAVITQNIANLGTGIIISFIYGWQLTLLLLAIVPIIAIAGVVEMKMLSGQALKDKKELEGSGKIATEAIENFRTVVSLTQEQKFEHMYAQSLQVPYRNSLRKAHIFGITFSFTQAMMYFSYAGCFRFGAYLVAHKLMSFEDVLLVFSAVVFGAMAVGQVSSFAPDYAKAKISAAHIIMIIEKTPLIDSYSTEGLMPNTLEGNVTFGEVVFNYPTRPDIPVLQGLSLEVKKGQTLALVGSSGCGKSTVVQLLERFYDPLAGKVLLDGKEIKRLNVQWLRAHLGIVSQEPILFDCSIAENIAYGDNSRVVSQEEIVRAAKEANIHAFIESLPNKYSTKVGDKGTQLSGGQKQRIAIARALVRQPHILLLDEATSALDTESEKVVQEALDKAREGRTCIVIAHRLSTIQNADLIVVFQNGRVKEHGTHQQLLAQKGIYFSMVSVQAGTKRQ

L5178Y [2] = assay: Cytotoxicity against human ABCB1 expressing mouse L5178Y cells incubated for 24 hrs by MTT assay; assay type: functional, cell-based
L5178Y [3] = assay: Antiproliferative activity against human ABCB1 expressing mouse L5178Y cells incubated for 72 hrs by MTT assay; assay type: functional, cell-based
COLO 205 = assay: Cytotoxicity against chemosensitive human COLO205 cells incubated for 24 hrs by MTT assay; assay type: functional, cell-based; conditions: COLO 205, 24 h
L5178Y [4] = assay: Antiproliferative activity against chemosensitive wild type parental mouse L5178Y cells incubated for 72 hrs by MTT assay; assay type: functional, cell-based
[5] = target: T1, ATP-dependent translocase ABCB1; assay: Inhibition of ABCB1 in multidrug resistant human COLO320 cells assessed as fluorescence activity ratio at 2 uM incubated for 10 mins by flow cytometry based rhodamine-123 accumulation assay (reference value: 0.62)
[6] = Antiproliferative activity against chemosensitive human COLO205 cells incubated for 72 hrs by MTT assay; assay type: functional, cell-based; conditions: COLO 205, 72 h
L5178Y [7] = assay: Cytotoxicity against chemosensitive wild type parental mouse L5178Y cells incubated for 24 hrs by MTT assay; assay type: functional, cell-based
L5178Y [8] = assay: Selectivity index, ratio of cytotoxic IC50 for wild type parental mouse L5178Y cells to cytotoxic IC50 for human ABCB1 expressing mouse L5178Y cells; assay type: functional
[9] = Antiproliferative activity against multidrug resistant human COLO320 cells incubated for 72 hrs by MTT assay; assay type: functional; conditions: COLO 320, 72 h
[10] = target: T1, ATP-dependent translocase ABCB1; assay: Inhibition of ABCB1 in multidrug resistant human COLO320 cells assessed as fluorescence activity ratio at 20 uM incubated for 10 mins by flow cytometry based rhodamine-123 accumulation assay (reference value: 0.62)
[11] = target: T1, ATP-dependent translocase ABCB1; assay: Inhibition of human ABCB1 expressed in mouse L5178Y cells assessed as potentiation of 2 mg/ml doxorubicin-induced cytotoxicty by measuring combination index at 5:1 compound to doxorubicin ratio incubated for 48 hrs by MTT assay; assay type: cell-based
[12] = Cytotoxicity against multidrug resistant human COLO320 cells incubated for 24 hrs by MTT assay; assay type: functional, cell-based; conditions: COLO 320, 24 h
[13] = Selectivity index, ratio of antiproliferative IC50 for chemosensitive human COLO205 cells to antiproliferative IC50 for multidrug resistant human COLO320 cells; assay type: functional, COLO 205
[14] = Selectivity index, ratio of cytotoxic IC50 for chemosensitive human COLO205 cells to cytotoxic IC50 for multidrug resistant human COLO320 cells; assay type: functional, COLO 205
L5178Y [15] = assay: Selectivity index, ratio of antiproliferative IC50 for wild type parental mouse L5178Y cells to antiproliferative IC50 for human ABCB1 expressing mouse L5178Y cells; assay type: functional
[16] = target: T1, ATP-dependent translocase ABCB1; assay: Inhibition of human ABCB1 expressed in mouse L5178Y cells assessed as fluorescence activity ratio at 0.2 uM incubated for 10 mins by flow cytometry based rhodamine-123 accumulation assay (reference value: 0.78); assay type: cell-based
[17] = target: T1, ATP-dependent translocase ABCB1; assay: Inhibition of ABCB1 in multidrug resistant human COLO320 cells assessed as fluorescence activity ratio at 0.2 uM incubated for 10 mins by flow cytometry based rhodamine-123 accumulation assay (reference value: 0.62)
[18] = target: T1, ATP-dependent translocase ABCB1; assay: Inhibition of human ABCB1 expressed in mouse L5178Y cells assessed as fluorescence activity ratio at 2 uM incubated for 10 mins by flow cytometry based rhodamine-123 accumulation assay (reference value: 0.78); assay type: cell-based
[19] = target: T1, ATP-dependent translocase ABCB1; assay: Inhibition of human ABCB1 expressed in mouse L5178Y cells assessed as potentiation of 2 mg/ml doxorubicin-induced cytotoxicty at 7:1 compound to doxorubicin ratio incubated for 48 hrs by MTT assay; assay type: cell-based
[20] = target: T1, ATP-dependent translocase ABCB1; assay: Inhibition of human ABCB1 expressed in mouse L5178Y cells assessed as potentiation of 2 mg/ml doxorubicin-induced cytotoxicty by measuring combination index at 4:1 compound to doxorubicin ratio incubated for 48 hrs by MTT assay; assay type: cell-based
[21] = target: T1, ATP-dependent translocase ABCB1; assay: Activation of human ABCB1 expressed in Sf9 cell membrane vesicles assessed as inorganic phosphate release at 0.8 uM to 100 uM using MgATP by colorimetric ATPase assay
[22] = target: T1, ATP-dependent translocase ABCB1; assay: Inhibition of human ABCB1 expressed in Sf9 cell membrane vesicles assessed as reduction in verapamil transport at 0.8 uM to 100 uM using MgATP by colorimetric ATPase assay relative to control
[23] = target: T1, ATP-dependent translocase ABCB1; assay: Inhibition of human ABCB1 expressed in Sf9 cell membrane vesicles assessed as reduction in verapamil transport at 0.8 uM to 100 uM using MgATP by colorimetric ATPase assay
[24] = target: T1, ATP-dependent translocase ABCB1; assay: Inhibition of human ABCB1 expressed in mouse L5178Y cells assessed as potentiation of 2 mg/ml doxorubicin-induced cytotoxicty at 6:1 compound to doxorubicin ratio incubated for 48 hrs by MTT assay; assay type: cell-based

C/C1=C\[C@@H]2[C@H](CC[C@]3(CO3)[C@H](OC(=O)c3cccc(C)c3)[C@H]3[C@@H](OC(=O)c4cccc(C)c4)[C@@H](C)C[C@]3(O)C1=O)C2(C)C
Ratio [1]: 83.29
IC50 (L5178Y [2]): > 50 µM
IC50 (L5178Y [3]): 29 µM
IC50 (COLO 205): > 50 µM
IC50 (L5178Y [4]): 41.8 µM
Ratio [5]: 5.59
IC50 [6]: 15.4 µM
IC50 (L5178Y [7]): 26.4 µM
Ratio IC50 (L5178Y [8]): <0.53
IC50 [9]: 15.7 µM
Ratio [10]: 6.86
CI [11]: 0.066
IC50 [12]: 23.9 µM
Ratio IC50 [13]: 0.98
Ratio IC50 [14]: >2.09
Ratio IC50 (L5178Y [15]): 1.44
Ratio [16]: 3.55
Ratio [17]: 3
Ratio [18]: 86.39

C/C1=C\[C@@H]2[C@H](CC[C@]3(CO3)[C@H](OC(=O)N(C)C)[C@H]3[C@@H](O)[C@@H](C)C[C@]3(O)C1=O)C2(C)C
Ratio [1]: 1.61
IC50 (L5178Y [2]): > 100 µM
IC50 (L5178Y [3]): > 100 µM
IC50 (COLO 205): 41 µM
IC50 (L5178Y [4]): > 100 µM
Ratio [5]: 1.03
IC50 [6]: 69 µM
CI [19]: 0.861
IC50 (L5178Y [7]): > 100 µM
Ratio IC50 (L5178Y [8]): >100
IC50 [9]: 69 µM
Ratio [10]: 1.55
IC50 [12]: > 100 µM
Ratio IC50 [13]: 1
Ratio IC50 [14]: <0.41
Ratio [18]: 0.67

C/C1=C\[C@@H]2[C@H](CC[C@]3(CO3)[C@H](OC(=O)c3ccc4ccccc4c3)[C@H]3[C@@H](OC(=O)c4ccc5ccccc5c4)[C@@H](C)C[C@]3(O)C1=O)C2(C)C
Ratio [1]: 66.52
IC50 (L5178Y [2]): > 100 µM
IC50 (L5178Y [3]): > 100 µM
IC50 (COLO 205): > 100 µM
IC50 (L5178Y [4]): > 100 µM
Ratio [5]: 5.83
IC50 [6]: > 100 µM
IC50 (L5178Y [7]): > 100 µM
IC50 [9]: > 100 µM
Ratio [10]: 5.06
IC50 [12]: > 100 µM
CI [20]: 0.233
Ratio [16]: 13.67
Ratio [17]: 2.54
Ratio [18]: 58.84

CO[C@H]1[C@@H]2[C@H](CC[C@]3(COC(=O)c4ccccc4)O[C@@H]3[C@H]3[C@@H](OC(=O)c4ccccc4)[C@@H](C)C[C@]3(O)C(=O)[C@@H]1C)C2(C)C
Ratio [1]: 71.78
IC50 (L5178Y [2]): 32.6 µM
IC50 (L5178Y [3]): 27.4 µM
Activity [21]: Active
inhibition (INH) [22]: 50%
IC50 (L5178Y [4]): 27 µM
Ratio [5]: 9.85
IC50 [6]: 5.2 µM
IC50 (L5178Y [7]): 26.1 µM
Ratio IC50 (L5178Y [8]): 0.8
IC50 [9]: 6.9 µM
Ratio [10]: 13.97
CI [11]: 0.057
Ratio IC50 [13]: 0.76
Ratio IC50 (L5178Y [15]): 0.99
Ratio [16]: 11.85
inhibition (INH) [23]: Active
Ratio [17]: 6.34
Ratio [18]: 67.06

CO[C@H]1[C@@H]2[C@H](CC[C@]3(COC(C)=O)O[C@@H]3[C@H]3[C@@H](OC(C)=O)[C@@H](C)C[C@]3(O)C(=O)[C@@H]1C)C2(C)C
Ratio [1]: 2.07
IC50 (L5178Y [2]): > 100 µM
IC50 (L5178Y [3]): > 100 µM
IC50 (COLO 205): > 100 µM
IC50 (L5178Y [4]): > 100 µM
CI [24]: 0.214
Ratio [5]: 1.1
IC50 [6]: > 100 µM
IC50 (L5178Y [7]): > 100 µM
IC50 [9]: 65.8 µM
Ratio [10]: 2.25
IC50 [12]: > 100 µM
Ratio IC50 [13]: >1.98
Ratio [18]: 1.16
